Assay results taken from ChEMBL document CHEMBL1136876, “On the inhibition of HIV-1 protease by hydrazino-ureas displaying the N-->C=O interaction” (Bioorg Med Chem, 2009).

Columns and labels:
Protease [1] = target: T1, Protease (Human immunodeficiency virus 1, UniProt Q9YQ12); assay: Inhibition of HIV1 protease by FRET assay
Protease [2] = target: T1, Protease; assay: Inhibition of HIV1 protease by Lineweaver-Burke method
Protease [3] = target: T1, Protease; assay: Inhibition of HIV1 protease by Hanes method
Protease [4] = target: T1, Protease; assay: Inhibition of HIV1 protease by Dixon method

T1 sequence (Q9YQ12 whole entry): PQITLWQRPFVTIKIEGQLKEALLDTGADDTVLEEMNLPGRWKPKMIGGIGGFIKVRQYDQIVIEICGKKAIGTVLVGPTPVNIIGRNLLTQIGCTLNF

Question: With `CC[C@H](C)[C@H](NC(=O)[C@@H](NC(C)(C)C)C(C)C)C(=O)NC(=O)[C@@H]1CCC[N+]12C([O-])[C@H](Cc1ccccc1)NC(=O)N2Cc1ccccc1` (some centres undefined) as the compound, how does the IC50 (Protease [1]) read?
Answer: 169 µM

Question: And the Ki (Protease [2])?
Answer: 149 µM

Question: What about the Ki (Protease [3]) of the same compound?
Answer: 149 µM

Question: What about the Ki (Protease [4]) of the same compound?
Answer: 138 µM

Question: Which IC50 (Protease [1]) does the source give for `CC(C)[C@H](NC(C)(C)C)C(=O)NC(=O)[C@@H]1CCC[N+]12C([O-])[C@H](Cc1ccccc1)NC(=O)N2Cc1ccccc1` (some centres undefined) here?
Answer: 341 µM

Question: And the Ki (Protease [2])?
Answer: 292 µM

Question: And the Ki (Protease [3])?
Answer: 292 µM

Question: What about the Ki (Protease [4]) of the same compound?
Answer: 286 µM

Question: Which IC50 (Protease [1]) does the source give for `O=C1N[C@H](Cc2ccccc2)C([O-])[N+]2(CCCCC2)N1Cc1ccccc1` (some centres undefined) here?
Answer: 543 µM

Question: What about the Ki (Protease [2]) of the same compound?
Answer: 461 µM

Question: And the Ki (Protease [3])?
Answer: 461 µM

Question: And the Ki (Protease [4])?
Answer: 454 µM

Question: With `O=C1N[C@@H](Cc2ccccc2)C([O-])[N+]2(CCCCC2)N1Cc1ccccc1` (some centres undefined) as the compound, how does the IC50 (Protease [1]) read?
Answer: 37.2 µM

Question: And the Ki (Protease [2])?
Answer: 26.2 µM

Question: And the Ki (Protease [3])?
Answer: 26.2 µM

Question: What about the Ki (Protease [4]) of the same compound?
Answer: 34.8 µM

Question: `C=CCOC(=O)N[C@]1(Cc2ccccc2)CC[N+]2(CCC[C@H]2C(=O)OC)C1[O-]` (some centres undefined) was tested. Which IC50 (Protease [1]) did it give?
Answer: > 1000 µM

Question: Which results are given for `CC(C)[C@H](N)C(=O)N[C@]1(Cc2ccccc2)CC[N+]2(CCC[C@H]2C(=O)NC(=O)[C@@H](NC(C)(C)C)C(C)C)C1[O-]` (some centres undefined)?
Answer: IC50 (Protease [1]): 204 µM; Ki (Protease [2]): 99 µM; Ki (Protease [3]): 96 µM; Ki (Protease [4]): 96 µM

Question: How did the IC50 (Protease [1]) turn out when `CC(C)(C)NC(=O)[C@@H]1CCC[N+]12C([O-])[C@H](Cc1ccccc1)NC(=O)N2Cc1ccccc1` (some centres undefined) was run?
Answer: 44.5 µM

Question: What about the Ki (Protease [2]) of the same compound?
Answer: 34.3 µM

Question: What about the Ki (Protease [3]) of the same compound?
Answer: 34.3 µM

Question: And the Ki (Protease [4])?
Answer: 43.9 µM

Question: For `CC(C)[C@H](N)C(=O)N[C@]1(Cc2ccccc2)CC[N+]2(CCC[C@H]2C(=O)NC(C)(C)C)C1[O-]` (some centres undefined), which IC50 (Protease [1]) is on record?
Answer: 545 µM

Question: And the Ki (Protease [2])?
Answer: 574 µM

Question: What about the Ki (Protease [3]) of the same compound?
Answer: 618 µM

Question: And the Ki (Protease [4])?
Answer: 577 µM
